The source made the active and inactive calls. No cut-off for these calls is given here.
What was measured:
[1] = Inhibition of mitochondrial complex I (unknown origin) incubated for 15 mins by microplate reader analysis; set-up: species or system Homo sapiens
KG-1 [2] = experiment: Antiproliferative activity against human KG-1 cells assessed as inhibition of cell growth incubated for 96 hrs by MTT assay; format: functional, cell-based; conditions: KG-1, 96 h
KG-1 [3] = experiment: Antiproliferative activity against human KG-1 cells assessed as inhibition of cell growth at 0.1 nM incubated for 96 hrs in presence of galactose by MTT assay; format: functional, cell-based
HCT-116 [4] = experiment: Induction of mitochondrial dysfunction in human HCT-116 cells assessed as attenuation of basal oxygen consumption incubated for 24 hrs by Seahorse XFe24 analyzer; format: functional, cell-based; conditions: dose 2-10 nM
HCT-116 [5] = experiment: Induction of mitochondrial dysfunction in human HCT-116 cells assessed as attenuation of maximum oxygen consumption rate incubated for 24 hrs by Seahorse XFe24 analyzer; format: functional, cell-based; conditions: dose 2-10 nM
HCT-116 [6] = experiment: Induction of mitochondrial dysfunction in human HCT-116 cells assessed as attenuation of oxygen consumption rate at 2 nM incubated for 24 hrs by Seahorse XFe24 analyzer; format: functional, cell-based
HCT-116 [7] = experiment: Induction of ROS generation in human HCT-116 cells measured for 30 mins by DCFDA-staining based flow cytometry analysis; format: functional, cell-based; conditions: dose <= 0.5 nM
KG-1 [8] = experiment: Induction of ROS generation in human KG-1 cells at 1 nM measured for 30 mins by DCFDA-staining based flow cytometry analysis; format: functional, cell-based
KG-1 [9] = experiment: Antitumor activity against human KG-1 cells xenografted in NOD-SCID mouse assessed as tumor growth inhibition at 5 mg/kg, ip qd administered 5 consecutive days per week for 24 days; format: functional; conditions: KG-1, 576 h, time 24 day, read-out: TGI
[10] = Acute toxicity in BALB/c mouse assessed as effect on AST level at 68 mg/kg, ip measured on day 14; format: organism-based; conditions: in vivo, 336 h, time 14 day
[11] = Acute toxicity in BALB/c mouse assessed as effect on ALB level at 68 mg/kg, ip measured on day 14; format: organism-based; conditions: in vivo, 336 h, time 14 day
[12] = Acute toxicity in BALB/c mouse assessed as effect on BILT level at 68 mg/kg, ip measured on day 14; format: organism-based; conditions: in vivo, 336 h, time 14 day
[13] = Acute toxicity in BALB/c mouse assessed as effect on GLU level at 68 mg/kg, ip measured on day 14; format: organism-based; conditions: in vivo, 336 h, time 14 day
[14] = Acute toxicity in BALB/c mouse assessed as effect on WBC level at 68 mg/kg, ip measured on day 14; format: organism-based; conditions: in vivo, 336 h, time 14 day
[15] = Acute toxicity in BALB/c mouse assessed as effect on PLT level at 68 mg/kg, ip measured on day 14; format: organism-based; conditions: in vivo, 336 h, time 14 day
[16] = Acute toxicity in BALB/c mouse assessed as effect on NEUT level at 68 mg/kg, ip measured on day 14; format: organism-based; conditions: in vivo, 336 h, time 14 day
[17] = Acute toxicity in BALB/c mouse assessed as heart damage at 40 to 68 mg/kg, ip measured on day 14 by H and E staining based analysis; format: organism-based; conditions: in vivo, 336 h, dose 40-68 mg/kg, time 14 day
[18] = Acute toxicity in BALB/c mouse assessed as liver damage at 40 to 68 mg/kg, ip measured on day 14 by H and E staining based analysis; format: organism-based; conditions: in vivo, 336 h, dose 40-68 mg/kg, time 14 day
[19] = Acute toxicity in BALB/c mouse assessed as lung damage at 40 to 68 mg/kg, ip measured on day 14 by H and E staining based analysis; format: organism-based; conditions: in vivo, 336 h, dose 40-68 mg/kg, time 14 day
[20] = Acute toxicity in BALB/c mouse assessed as animal death at 116 mg/kg, ip measured on day 14; format: organism-based; conditions: in vivo, time 14 day, read-out: Activity
[21] = Toxicity in NOD-SCID mouse xenografted with human KG-1 cells assessed as effect on BILT level at 5 mg/kg, ip qd administered 5 consecutive days per week for 24 days; format: organism-based; conditions: in vivo, 576 h, time 24 day
[22] = Toxicity in NOD-SCID mouse xenografted with human KG-1 cells assessed as effect on CHO2 level at 5 mg/kg, ip qd administered 5 consecutive days per week for 24 days; format: organism-based; conditions: in vivo, 576 h, time 24 day
[23] = Toxicity in NOD-SCID mouse xenografted with human KG-1 cells assessed as effect on HDL level at 5 mg/kg, ip qd administered 5 consecutive days per week for 24 days; format: organism-based; conditions: in vivo, 576 h, time 24 day
[24] = Toxicity in NOD-SCID mouse xenografted with human KG-1 cells assessed as effect on LDL level at 5 mg/kg, ip qd administered 5 consecutive days per week for 24 days; format: organism-based; conditions: in vivo, 576 h, time 24 day
[25] = Toxicity in NOD-SCID mouse xenografted with human KG-1 cells assessed as effect on UA level at 5 mg/kg, ip qd administered 5 consecutive days per week for 24 days; format: organism-based; conditions: in vivo, 576 h, time 24 day
[26] = Toxicity in NOD-SCID mouse xenografted with human KG-1 cells assessed as effect on UREA level at 5 mg/kg, ip qd administered 5 consecutive days per week for 24 days; format: organism-based; conditions: in vivo, 576 h, time 24 day
[27] = Toxicity in NOD-SCID mouse xenografted with human KG-1 cells assessed as effect on neutrophil count at 5 mg/kg, ip qd administered 5 consecutive days per week for 24 days; format: organism-based; conditions: in vivo, 576 h, time 24 day
[28] = Toxicity in NOD-SCID mouse xenografted with human KG-1 cells assessed as effect on lymphocyte count at 5 mg/kg, ip qd administered 5 consecutive days per week for 24 days; format: organism-based; conditions: in vivo, 576 h, time 24 day
[29] = Toxicity in NOD-SCID mouse xenografted with human KG-1 cells assessed as effect on HGB count at 5 mg/kg, ip qd administered 5 consecutive days per week for 24 days; format: organism-based; conditions: in vivo, 576 h, time 24 day
[30] = Toxicity in NOD-SCID mouse xenografted with human KG-1 cells assessed as effect on RDV at 5 mg/kg, ip qd administered 5 consecutive days per week for 24 days; format: organism-based; conditions: in vivo, 576 h, time 24 day
[31] = Toxicity in NOD-SCID mouse xenografted with human KG-1 cells assessed as effect on PLT level at 5 mg/kg, ip qd administered 5 consecutive days per week for 24 days; format: organism-based; conditions: in vivo, 576 h, time 24 day
[32] = Toxicity in NOD-SCID mouse xenografted with human KG-1 cells assessed as effect on MPV at 5 mg/kg, ip qd administered 5 consecutive days per week for 24 days; format: organism-based; conditions: in vivo, 576 h, time 24 day
[33] = Toxicity in NOD-SCID mouse xenografted with human KG-1 cells assessed as effect on spleen damage at 5 mg/kg, ip qd administered 5 consecutive days per week for 24 days by H and E staining based analysis; format: organism-based; conditions: in vivo, 576 h, time 24 day
[34] = Toxicity in NOD-SCID mouse xenografted with human KG-1 cells assessed as effect on lung damage at 5 mg/kg, ip qd administered 5 consecutive days per week for 24 days by H and E staining based analysis; format: organism-based; conditions: in vivo, 576 h, time 24 day
[35] = Toxicity in NOD-SCID mouse xenografted with human KG-1 cells assessed as effect on kidney damage at 5 mg/kg, ip qd administered 5 consecutive days per week for 24 days by H and E staining based analysis; format: organism-based; conditions: in vivo, 576 h, time 24 day
Cytochrome P450 2C9 = Cytochrome P450 2C9 (Homo sapiens, UniProt P11712); experiment: Inhibition of CYP2C9 in human liver microsomes incubated for 10 mins in presence of NADPH by LC/MS/MS analysis; format: ADME, Microsome
Sequence of Cytochrome P450 2C9 (P11712 whole entry): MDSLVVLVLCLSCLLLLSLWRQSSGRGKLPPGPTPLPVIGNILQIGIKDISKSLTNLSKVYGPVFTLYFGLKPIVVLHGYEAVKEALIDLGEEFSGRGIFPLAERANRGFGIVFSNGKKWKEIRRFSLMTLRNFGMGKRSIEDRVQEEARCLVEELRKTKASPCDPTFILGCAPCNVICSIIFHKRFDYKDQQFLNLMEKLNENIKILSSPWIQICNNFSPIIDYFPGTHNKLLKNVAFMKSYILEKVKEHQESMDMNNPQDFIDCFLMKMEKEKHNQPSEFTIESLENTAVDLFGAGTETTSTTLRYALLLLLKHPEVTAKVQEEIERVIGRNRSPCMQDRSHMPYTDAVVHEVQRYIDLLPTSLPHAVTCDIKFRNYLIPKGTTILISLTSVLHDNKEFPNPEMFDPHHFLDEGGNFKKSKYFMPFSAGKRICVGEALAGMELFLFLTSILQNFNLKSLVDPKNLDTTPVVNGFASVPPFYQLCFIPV

Cytochrome P450 3A4 = Cytochrome P450 3A4 (Homo sapiens, UniProt P08684); experiment: Inhibition of CYP3A4 in human liver microsomes incubated for 5 mins in presence of NADPH by LC/MS/MS analysis; format: ADME, Microsome
Sequence of Cytochrome P450 3A4 (P08684 whole entry): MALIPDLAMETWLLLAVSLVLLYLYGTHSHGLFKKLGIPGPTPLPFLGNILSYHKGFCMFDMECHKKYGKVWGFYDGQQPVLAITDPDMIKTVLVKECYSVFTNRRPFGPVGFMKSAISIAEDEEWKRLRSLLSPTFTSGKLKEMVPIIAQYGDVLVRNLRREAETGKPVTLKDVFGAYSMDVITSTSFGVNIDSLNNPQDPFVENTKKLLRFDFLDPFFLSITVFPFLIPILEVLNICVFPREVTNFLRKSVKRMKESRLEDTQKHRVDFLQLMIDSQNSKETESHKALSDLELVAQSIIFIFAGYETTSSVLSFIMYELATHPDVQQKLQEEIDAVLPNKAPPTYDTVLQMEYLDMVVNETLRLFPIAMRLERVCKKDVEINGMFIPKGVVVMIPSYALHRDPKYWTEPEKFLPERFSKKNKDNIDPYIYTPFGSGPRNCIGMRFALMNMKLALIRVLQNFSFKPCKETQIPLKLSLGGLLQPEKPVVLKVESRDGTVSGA

SMILES | IC50 [1] [nM] | IC50 (KG-1 [2]) [nM] | Activity (KG-1 [3]) | Activity (HCT-116 [4]) | Activity (HCT-116 [5]) | Activity (HCT-116 [6]) | Activity (HCT-116 [7]) | Activity (KG-1 [8]) | inhibition in vivo at 5 mg/kg (KG-1 [9]) [%] | Activity [10] | Activity [11] | Activity [12] | Activity [13] | Activity [14] | Activity [15] | Activity [16] | Activity [17] | Activity [18] | Activity [19] | mortality at 336 h [20] [%] | further results
Cc1cc(C(=O)Nc2ccc(C(F)(F)F)cc2)nn1Cc1cccc(N2CCN(C(=O)C3CC3)CC2)c1 | 830 | 3.9 | Active | Dose-Dependent Effect | Dose-Dependent Effect | Active | Dose-Dependent Effect | Active | 65.9 | Non-Toxic | Non-Toxic | Non-Toxic | Non-Toxic | Non-Toxic | Non-Toxic | Non-Toxic | Non-Toxic | Non-Toxic | Non-Toxic | 33.3 | Activity [21]: Non-Toxic; Activity [22]: Non-Toxic; Activity [23]: Non-Toxic; Activity [24]: Non-Toxic; Activity [25]: Non-Toxic; Activity [26]: Non-Toxic; Activity [27]: Non-Toxic; Activity [28]: Non-Toxic; Activity [29]: Non-Toxic; Activity [30]: Non-Toxic; Activity [31]: Non-Toxic; Activity [32]: Non-Toxic; Activity [33]: Non-Toxic; Activity [34]: Non-Toxic; Activity [35]: Non-Toxic; IC50 (Cytochrome P450 2C9): 1010 nM; IC50 (Cytochrome P450 3A4): 7.48 µM
Cc1cc(C(=O)Nc2ccc(OC(F)(F)F)cc2)nn1Cc1cccc(N2CCN(C(=O)C3CC3)CC2)c1 | 1140 | 5.81 | Active | Dose-Dependent Effect | Dose-Dependent Effect | Active | Dose-Dependent Effect | Active | 61.5 | Non-Toxic | Non-Toxic | Non-Toxic | Non-Toxic | Non-Toxic | Non-Toxic | Non-Toxic | Non-Toxic | Non-Toxic | Non-Toxic | 33.3 | Activity [21]: Non-Toxic; Activity [22]: Non-Toxic; Activity [23]: Non-Toxic; Activity [24]: Non-Toxic; Activity [25]: Non-Toxic; Activity [26]: Non-Toxic; Activity [27]: Non-Toxic; Activity [28]: Non-Toxic; Activity [29]: Non-Toxic; Activity [30]: Non-Toxic; Activity [31]: Non-Toxic; Activity [32]: Non-Toxic; Activity [33]: Non-Toxic; Activity [34]: Non-Toxic; Activity [35]: Non-Toxic; IC50 (Cytochrome P450 2C9): 1830 nM; IC50 (Cytochrome P450 3A4): 6.99 µM
